Earlier results, collected in patent US20240139231A1, “METFORMIN COMPOSITIONS AND METHODS FOR TREATMENT OF DIABETES” (priority 2018, published 2024).

Assays:
[1] = 500 mg/day co-administered with metformin, 12 weeks

| Compound | reduction of blood sugar levels, HbA1c measure, relative to metformin in combination with a placebo (type 2 diabetes mellitus; [1]) | reduction of blood sugar levels, fasting measure, relative to metformin in combination with a placebo (type 2 diabetes mellitus; [1]) | reduction of blood sugar levels, post-prandial measure, relative to metformin in combination with a placebo (type 2 diabetes mellitus; [1]) | effect on blood sugar when co-administered in lower amounts (type 2 diabetes mellitus; lower amounts, earlier reports by others) | time to maximum effect (blood glucose levels; depending on the dose) | low threshold dose at which effects on blood glucose levels become significant (blood glucose levels; in vivo) | time until effects begin to appear after the user starts taking the medication (blood glucose levels; in vivo) |
| --- | --- | --- | --- | --- | --- | --- | --- |
| O=C1O[C@H]([C@@H](O)CO)C(O)=C1O [ascorbic acid] | 1.5% | 7% | ca. 3% | no effect |  |  |  |
| CN(C)C(=N)NC(=N)N [metformin, Metformin] |  |  |  |  | within four to five days | 1,500 mg/day | ≤ 48 h |
